Laboratory results: article PMC10065799, “High-throughput profiling of sequence recognition by tyrosine kinases and SH2 domains using bacterial peptide display” (eLife, 2023)

Biological target: T1, c-Abl kinase domain (Mus musculus, UniProt P00520)
T1 sequence (P00520 242-493 limits assumed): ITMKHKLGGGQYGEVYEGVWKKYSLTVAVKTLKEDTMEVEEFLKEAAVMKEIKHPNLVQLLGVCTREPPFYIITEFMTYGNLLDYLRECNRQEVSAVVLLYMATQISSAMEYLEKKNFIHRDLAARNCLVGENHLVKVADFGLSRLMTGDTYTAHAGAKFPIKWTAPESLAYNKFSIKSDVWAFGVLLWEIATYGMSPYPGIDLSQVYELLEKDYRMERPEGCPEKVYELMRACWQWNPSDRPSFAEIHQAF
Assay: pTyr-Var library bacterial peptide display kinase screen (enrichment scores)
Type: biochemical
Settings: variant versus reference peptide

Sequence: ATGLIYIGSHD [AASDH_Y870_T865A]
- c-Abl difference (mean log2 variant - mean log2 reference): 0.7644
